Measured values reported in US9399649B2, “Compounds for treating spinal muscular atrophy” (PTC Therapeutics Inc., priority 2012, dated 2016).

Columns and labels:
[1] = test system: SMA Δ7 homozygous knockout mice; assay: Righting reflex in neonatal Δ7 SMA mice; assay type: in vivo; settings: IP QD from PND 3, measured PND 10, 14 and 18, FIG. 14
Method: The functional change in righting reflex of neonatal SMA mice is used to determine whether treatment with a test compound improves righting reflex.
SMA Δ7 homozygous knockout mice are dosed intraperitoneally (IP) with test compound or vehicle (100% DMSO) QD from PND 3 until the dose regimen is switched to an oral dose BID in 0.5% hydroxypropylmethyl cellulose (HPMC) with 0.1% Tween-80 at a dose 3.16-fold higher than the dose used for IP. The righting reflex time is measured as the time taken by a mouse to flip over onto its feet after being laid on its back. Righting reflex is measured five times for each mouse (allowing a maximal time of 30 sec for each try) with 5 minutes between each measurement. The righting reflex time for SMA Δ7 homozygous knockout mice treated with test compound or vehicle and age-matched heterozygous mice is measured on PND 10, 14 and 18 and plotted.

[2] = test system: full length SMN2 minigene mRNA containing SMN2 exon 7; assay: SMN2 minigene mRNA splicing RT-qPCR assay in cultured cells; assay type: cell-based, human; settings: for SMN2 minigene FL mRNA relative to vehicle: HEK293H cells with SMN2-A minigene, rising concentrations, 24 hr, FIG. 3; for EC (1.5-fold): Homo sapiens, HEK293-H, HEK293H cells stably transfected with SMN2-A minigene, 24 hours, 7-point concentration curve, concentration giving 1.5-fold full length SMN2 mRNA vs vehicle, read-out: EC1.5x for production of full length SMN2 mRNA
In short: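 Read-out is minigene FL mRNA (exon 7 included) relative to vehicle, from efficiency-corrected ΔΔCt with GAPDH normalisation. Primers and probe span exon 7, exon 8 and luciferase, so endogenous SMN is not detected. Stable SMN2-A minigene HEK293H cells, 24 h compound exposure at 37 °C, 7-point curve in duplicate.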

Structure (SMILES) | righting reflex [1] | SMN2 minigene FL mRNA relative to vehicle [2] | EC (1.5-fold) [2]
Cc1cn2cc(-c3cc4ccc(N5CCN(C)CC5)cc4c(=O)o3)nc2c(C)n1 [Cpd 65, 3-(6,8-dimethylimidazo[1,2-a]pyrazin-2-yl)-7-(4-methylpiperazin-1-yl)-1H-isochromen-1-one] | improved compared to vehicle treated mice | increased SMN2 minigene FL mRNA at low concentrations | ≤ 0.1 µM
Cc1cn2cc(-c3cc4ccc(N5CCN6CCC[C@H]6C5)cc4c(=O)o3)nc2c(C)n1 [Cpd 69, 3-(6,8-dimethylimidazo[1,2-a]pyrazin-2-yl)-7-[(8aS)-hexahydropyrrolo[1,2-a]pyrazin-2(1H)-yl]-1H-isochromen-1-one] | improved compared to vehicle treated mice | increased SMN2 minigene FL mRNA at low concentrations | ≤ 0.1 µM
